Experimental findings from PMC6151589, “Identification of Optically Active Pyrimidine Derivatives as Selective 5-HT2C Modulators” (Molecules : A Journal of Synthetic Chemistry and Natural …, 2017) are described below.

Where two headings read alike, the source gives them in different places.

What all share (format): binding
Test [1] deals with T1, 5-HT2B (Homo sapiens, UniProt P41595).
T1 construct: gene HTR2B; human recombinant receptor; crude membrane fractions of transfected HEK293 or CHO cells
Briefly: radioligand displacement, membranes. An excerpt:
radioligand displacement, membranes on 5-HT2B

In test [2] the target is T2, 5-HT2A (Homo sapiens, UniProt P28223).
T2 construct: gene HTR2A; human recombinant receptor; crude membrane fractions of transfected HEK293 or CHO cells
As to the kind of experiment: radioligand displacement, membranes. An excerpt: radioligand displacement, membranes on 5-HT2A

Test [3] addresses T3, 5-HT2C (Homo sapiens, UniProt P28335).
T3 construct: gene HTR2C; human recombinant receptor; crude membrane fractions of transfected cells (CHO-K1; HEK293 or CHO)
T3 sequence (P28335 33-458): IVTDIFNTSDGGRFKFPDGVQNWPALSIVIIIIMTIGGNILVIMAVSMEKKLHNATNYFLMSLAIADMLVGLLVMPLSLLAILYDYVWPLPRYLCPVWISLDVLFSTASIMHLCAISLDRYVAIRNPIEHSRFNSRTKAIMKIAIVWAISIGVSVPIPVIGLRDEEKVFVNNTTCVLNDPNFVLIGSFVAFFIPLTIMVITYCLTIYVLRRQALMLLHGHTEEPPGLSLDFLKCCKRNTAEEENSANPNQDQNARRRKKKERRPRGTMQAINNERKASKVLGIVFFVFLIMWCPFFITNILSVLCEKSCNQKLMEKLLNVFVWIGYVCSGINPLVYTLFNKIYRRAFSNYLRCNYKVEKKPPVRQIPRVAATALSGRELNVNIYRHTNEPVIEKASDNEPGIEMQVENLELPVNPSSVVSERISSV
Briefly: [3H]mesulergine displacement, membranes. The following applies: read-out: 5-HT2B / Ki.

In test [4] the target is T3, 5-HT2C. As to the kind of experiment: [3H]mesulergine displacement, membranes. The source says:
[3H]mesulergine displacement, membranes on 5-HT2C

T1 sequence (P41595 whole entry): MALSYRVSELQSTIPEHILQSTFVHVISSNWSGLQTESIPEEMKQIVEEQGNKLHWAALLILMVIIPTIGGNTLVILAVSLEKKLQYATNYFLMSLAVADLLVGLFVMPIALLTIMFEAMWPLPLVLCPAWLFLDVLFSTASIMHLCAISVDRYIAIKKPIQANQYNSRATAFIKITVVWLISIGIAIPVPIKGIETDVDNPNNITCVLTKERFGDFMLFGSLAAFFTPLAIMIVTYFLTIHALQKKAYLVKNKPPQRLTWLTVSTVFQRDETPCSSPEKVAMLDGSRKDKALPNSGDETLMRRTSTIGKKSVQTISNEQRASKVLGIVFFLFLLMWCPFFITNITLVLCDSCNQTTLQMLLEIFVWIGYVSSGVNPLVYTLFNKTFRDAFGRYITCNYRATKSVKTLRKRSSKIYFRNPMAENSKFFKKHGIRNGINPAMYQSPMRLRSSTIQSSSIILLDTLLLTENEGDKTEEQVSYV
T2 sequence (P28223 whole entry): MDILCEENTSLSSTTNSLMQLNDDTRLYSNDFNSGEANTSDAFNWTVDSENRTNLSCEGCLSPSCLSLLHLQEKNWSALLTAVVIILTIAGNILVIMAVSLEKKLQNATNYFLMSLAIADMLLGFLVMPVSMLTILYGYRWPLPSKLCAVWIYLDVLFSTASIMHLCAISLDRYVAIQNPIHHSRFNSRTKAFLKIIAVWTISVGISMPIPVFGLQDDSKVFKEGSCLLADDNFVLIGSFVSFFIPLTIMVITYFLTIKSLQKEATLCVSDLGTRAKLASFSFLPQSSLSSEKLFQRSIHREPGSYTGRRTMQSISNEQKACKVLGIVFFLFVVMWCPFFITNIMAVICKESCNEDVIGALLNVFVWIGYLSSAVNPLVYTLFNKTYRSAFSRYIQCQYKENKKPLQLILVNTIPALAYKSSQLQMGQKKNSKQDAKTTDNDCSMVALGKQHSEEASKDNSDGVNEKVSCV

Consider `C[C@@H]1CNCCN1c1ncc(F)c(OCCCc2ccc(F)cc2)n1` [4g, (R)-5-Fluoro-4-(3-(4-fluorophenyl)propoxy)-2-(2-methylpiperazin-1-yl)pyrimidine], for which the Ki was found to be 22 nM in test [1], 90 nM in test [2] and 22 nM in test [3].

For `C[C@@H]1CNCCN1c1ncc(F)c(OCc2ccccc2F)n1` [4a, (R)-5-Fluoro-4-((2-fluorobenzyl)oxy)-2-(2-methylpiperazin-1-yl)pyrimidine], the values for the Ki in test [1], in test [4] and in test [2] were 56 nM, 31 nM and 80 nM, respectively.

`C[C@@H]1CNCCN1c1ncc(F)c(OCc2ccc(F)cc2)n1` [4c, (R)-5-Fluoro-4-((4-fluorobenzyl)oxy)-2-(2-methylpiperazin-1-yl)pyrimidine]: the Ki was 14 nM in test [1], 22 nM in test [4] and 51 nM in test [2].

Take `C[C@@H]1CNCCN1c1ncc(F)c(OCc2cccc(F)c2)n1` [4b, (R)-5-Fluoro-4-((3-fluorobenzyl)oxy)-2-(2-methylpiperazin-1-yl)pyrimidine]: the Ki was 14 nM in test [1], 5.1 nM in test [4] and 43 nM in test [2].

Consider `CC(Oc1nc(N2CCNC[C@H]2C)ncc1F)c1ccc(F)cc1` (mixture of isomers) [4e, 5-Fluoro-4-(1-(4-fluorophenyl)ethoxy)-2-((R)-2-methylpiperazin-1-yl)pyrimidine], for which the Ki in test [1] came to 10 nM; in test [4], 4.5 nM; in test [2], 426 nM.

As to `C[C@@H]1CNCCN1c1ncc(F)c(OCCCc2cccc(F)c2)n1` [4f, (R)-5-Fluoro-4-(3-(3-fluorophenyl)propoxy)-2-(2-methylpiperazin-1-yl)pyrimidine], the Ki in test [1] was 24 nM; in test [4], 20 nM; in test [2] it was 138 nM.

Consider `CC(CCc1ccc(F)cc1)Oc1nc(N2CCNC[C@H]2C)ncc1F` (mixture of isomers) [4i, 5-Fluoro-4-((4-(4-fluorophenyl)butan-2-yl)oxy)-2-((R)-2-methylpiperazin-1-yl)pyrimidine], for which the Ki in test [1] is 22 nM; in test [4] it was 12 nM; in test [2], 173 nM.

Turning to `CC(Oc1nc(N2CCNC[C@H]2C)ncc1F)c1cccc(F)c1` (mixture of isomers) [4d, 5-Fluoro-4-(1-(3-fluorophenyl)ethoxy)-2-((R)-2-methylpiperazin-1-yl)pyrimidine], the figures for the Ki in test [1], in test [4] and in test [2] were 4.8 nM, 2.7 nM and 213 nM, respectively.

Turning to `CC(CCc1cccc(F)c1)Oc1nc(N2CCNC[C@H]2C)ncc1F` (mixture of isomers) [4h, 5-Fluoro-4-((4-(3-fluorophenyl)butan-2-yl)oxy)-2-((R)-2-methylpiperazin-1-l)pyrimidine], the results for the Ki in test [1], in test [4] and in test [2] were 16 nM, 14 nM and 170 nM, respectively.
